Reference: patent US4254285A, “1-Hydroxymethyl-1-1-oxo prostane derivatives of the E and F series” (American Cyanamid Company, priority 1979, dated 1981)
Like-named read-outs stand apart in the source and are kept apart here. Each block holds one compound with its values, some of them ahead of it.

Legend:
[1] = system: continuous respiratory spasm induced by pilocarpine; assay: Bronchodilator Activity (Pilocarpine Assay); assay type: in vivo; details: dog, aerosol, 3.2 mg/ml; for inhibition at 3200 µg/mL: Canis lupus familiaris, inhaled or nasal
Experimental: The PGE compounds of this invention also have bronchodilator activity as determined in a test using dogs anesthetized, artificially ventilated and submitted to a continuous respiratory spasm induced by pilocarpine. Mongrel dogs of either sex weighing between 5 and 10 kg are used. They are premedicated with morphine HCl by subcutaneous injection at 1.5 mg/Kg. An intravenous perfusion of 5% (W/V) chloralose is started 1/2 hour after the morphine injection in such a way that 60 mg/Kg are administered within 15 minutes. After completion, a continuous perfusion of 10 mg/Kg hour is maintained throughout the experiment. The dogs are artificially ventilated by means of a Starling pump at a rate of 20 breaths/minute. The volume is adjusted according to the weight of the animal. [Kleinman and Radford, J. Appl. Physiol., 19, 360 (1964)]. All the measurements are made with the dogs positioned supine in a heated, V-shaped table. Curarization is obtained by succinylcholine chloride using a starting injection of 3 mg/Kg lasting 3 minutes, followed by a continuous perfusion of 0.1 mg/Kg/minute. The respiratory spasm is induced by a starting injection of 400 mcg/Kg of pilocarpine HCl lasting 5 minutes. An increase or decrease in the dose of pilocarpine HCl may occur as a function of the observed effect on airway's resistance. A 15 minute delay is observed before the start of a continuous perfusion of pilocarpine HCl at a dose of 4 mcg/Kg/minute to maintain a constant spasm during the test. A metallic cannula is inserted and fixed, after tracheotomy, into the upper part of the trachea. The two cephalic veins and the two femoral veins are catheterized to inject the various agents. The femoral artery is catheterized to measure the systemic blood pressure. An esophageal balloon (11 cm×2.5 cm) is inserted into the lower third of the oesophagus to measure the endothoracic pressure. The measurement of air flow is made with a […] pneumotachograph connected to the tracheal tube. The transpulmonary pressure is measured as follows: The tracheal cannula is equipped with a stainless steel axial tube (1.5 mm) which is closed at its distal end and projected 2.5 cm beyond the end of the cannula. Three holes with a diameter of one mm are pierced on this latter segment. This tube, which is used to measure the tracheal pressure, is connected to one of the two chambers of a Sanborn 267 B/C differential transducer. The other chamber is connected to the esophageal balloon by means of a polyethylene catheter of the same length and characteristics as the balloon's. The airway's resistance, expressed in cm of water/liter/second, is measured by subtracting from the electrical equivalent of the transpulmonary pressure, a voltage proportional to the flow so as to synchronize the pressure and volume signals on the oscilloscope [Mead and Whittenberger, J. Appl. Physiol, 5, 779 (1953)]. The test compounds are administered by an Aerosol® route. The micronebulizer of a Bird Mark 7 respirator is fitted on the metallic cannula just after the pneumotachograph. The "puff" of the test compound, in Aerosol® is driven by a 2 Kg/cm^2 pressure, allowed into the micronebulizer just during one inspiration cycle. The micronebulizer is fitted on the respiratory tube only during the "puff". It is weighed just before and just after administration to determine the amount of test compound administered.

[2] = system: bronchospasms elicited by 5-hydroxytryptamine; assay: Bronchodilator Activity (Konzett Assay), 5-hydroxytryptamine; assay type: in vivo; details: guinea pig, intravenous, spasmogen 5-hydroxytryptamine, three logarithmic cumulative doses
Experimental: (§1) The bronchodilator activity of some of the PGE compounds of this invention is determined in guinea pigs against bronchospasms elicited by intravenous injections of 5-hydroxytryptamine, histamine or acetylcholine by the Konzett procedure. [See J. Lulling, P. Lievens, F. El Sayed and J. Prignot, Arzneimittel-Forschung, 18, 995 (1968)].
(§2) In the Table B which follows, bronchodilator activity for representative compounds of this invention against one or more of the three spasmogenic agents is expressed as an ED50 determined from the results obtained with three logarithmic cumulative intravenous doses.

[3] = system: bronchospasms elicited by histamine; assay: Bronchodilator Activity (Konzett Assay), histamine; assay type: in vivo; details: guinea pig, intravenous, spasmogen histamine, three logarithmic cumulative doses
Experimental: as §1, §2

[4] = system: bronchospasms elicited by acetylcholine; assay: Bronchodilator Activity (Konzett Assay), acetylcholine; assay type: in vivo; details: guinea pig, intravenous, spasmogen acetylcholine, three logarithmic cumulative doses
Experimental: as §1, §2

[5] = system: platelet aggregation induced by adenosine diphosphate; assay: Inhibition of platelet aggregation in vitro, adenosine diphosphate; assay type: cell-based; details: 0.025 mg/ml, human plasma
From the text: (§3) It is well known that platelet aggregation inhibitors may be useful as anti-thrombotic drugs. Inhibition of platelet aggregation can be conveniently measured in vitro by monitoring changes in optical density and/or light transmission in platelet rich plasma upon addition of suitable aggregating agents such as adenosine diphosphate, epinephrine, thrombin or collagen. Alternatively, platelet aggregation can be measured in vitro using platelet rich plasma obtained at various time intervals from animals given inhibitors by an oral or parenteral route.
(§4) […] is incubated with modified Tyrode's solution in a proportion of 40-50% human protein rich plasma. The test compounds are added at varying concentrations and after 5 minutes incubation, an aggregating agent such as adenosine diphosphate or collagen is added. The change in optical density (light transmission) is monitored by eye and inhibition is recorded as a (-) or lack of inhibition is recorded as a (+). Test compounds are considered active if they inhibit adenosine diphosphate or collagen induced aggregation at a concentration of 0.025 mg/ml or less within 5-10 minutes.

[6] = system: platelet aggregation induced by collagen; assay: Inhibition of platelet aggregation in vitro, collagen; assay type: cell-based; details: 0.025 mg/ml, human plasma
From the text: as §3, §4

[7] = system: indomethacin-induced gastric ulcers; assay type: in vivo, rat; details: indomethacin-only treatment, 10 mg/kg subcut.
Experimental: (§5) Male Wistar rats (Royal Hart, New Hampton, N.Y.), weighing 190-210 g are distributed among control and treatment groups (5 rats/group) and housed one rat per cage. During the 52 hour test period, the rats are permitted free access to food and drinking water for the first 33 hours but are fasted overnight prior to sacrifice. Indomethacin is suspended (4 mg/ml) in a 1.5% starch-phosphate buffer solution (SPBS). 1,9-dioxo-11α,16-dihydroxy-16-methyl-1-hydroxymethyl-13-transprostene is dissolved at 10 mg/ml in ethanol and then diluted in SPBS to 0.1 mg/ml or to a lower concentration as required. The indomethacin suspension is injected subcutaneously (10 mg/kg) and the prostaglandin suspension is given by gavage (0.5 mg/kg or less) b.i.d. on day 0 and 1. Rats receive only one dose of prostaglandin and indomethacin on day 2 and 6 hours later are killed with chloroform. The stomachs are dissected, opened along the greater curvature, and rinsed briefly in tap water. They are then spread, mucosal surface facing upward and pinned onto uniform size corks (2.5 inch diameter) individually numbered on the back. The identification number for each stomach is unknown to the investigator and the stomachs are randomly graded according to the following scheme:
1--Petechial hemorrhage, or pin-point ulcers
2--One or two small ulcers or hemorrhagic erosions
3--Many areas of hemorrhage erosion or ulcers, a few large
4--Massive areas of hemorrhagic erosion or many ulcers, mainly large
(§6) ^a Treatment is B.I.D. on days 0 and 1, and once on day 2, six hours
(§7) prior to sacrifice for scoring.

[8] = system: indomethacin-induced intestinal ulcers; assay type: in vivo, rat; details: indomethacin-only treatment, 10 mg/kg subcut.
Experimental: as §5
Intestines are also removed and examined for the presence of ulcers, which are graded according to the scheme outlined below.
1--Mucosa thin, petechial hemorrhage
2--"Blow-outs", when intestine inflated with air
3--Few ulcers. Gut more fragile than normal, tears along line of mesentery attachements when removed
4--Many large perforating lesions. Adhesions. Gut hemorrhagic and very fragile. Tears readily and cannot be removed intact. Graded in situ.
as §6, §7

[9] = assay type: in vivo, rat; details: indomethacin-only treatment, 10 mg/kg subcut.
Experimental: as §5, §6, §7

[10] = 5 min, 5 min. after drug administration
[11] = 0.5 h, 30 min. after drug administration
[12] = 1 h, 60 min. after drug administration
[13] = Cavia porcellus, read-out: ED50

SMILES: CCCCCC(O)C=CC1C(O)CC(=O)C1CCCCCCC(=O)CO (stereo not drawn) [1,9-dioxo-11α,15α-dihydroxy-1-hydroxymethyl-13-trans-prostene]
inhibition at 3200 µg/mL [1, 10]: 80% | inhibition at 3200 µg/mL [1, 11]: 40% | inhibition at 3200 µg/mL [1, 12]: 15% | ED50 [2, 13]: 0.936 µg/kg | ED50 [3, 13]: 0.547 µg/kg | ED50 [4, 13]: 3.9 µg/kg

SMILES: CCCCC1(C(O)C=CC2C(O)CC(=O)C2CCCCCCC(=O)CO)CCC1 (stereo not drawn) [1,9-dioxo-11α,15-dihydroxy-1-hydroxymethyl-16,16-trimethylene-13-trans-prostene]
inhibition at 3200 µg/mL [1, 10]: 90% | inhibition at 3200 µg/mL [1, 11]: 75% | inhibition at 3200 µg/mL [1, 12]: 60% | ED50 [2, 13]: 1.4 µg/kg | ED50 [3, 13]: 0.734 µg/kg | ED50 [4, 13]: 1.3 µg/kg

SMILES: CCCCC(O)(CC)CC=CC1C(O)CC(=O)C1CC=CCCCC(=O)CO (stereo not drawn) [1,9-dioxo-11α,16-dihydroxy-16-ethyl-1-hydroxymethyl-5-cis-13-trans-prostadiene]
inhibition at 3200 µg/mL [1, 10]: 70% | inhibition at 3200 µg/mL [1, 11]: 50% | inhibition at 3200 µg/mL [1, 12]: 35%

SMILES: CCCCC1(C(O)/C=C/C2C(O)CC(=O)C2C/C=C\CCCC=O)CCC1 (stereo not drawn) [1,9-dioxo-11α,15α-dihydroxy-16,16-trimethylene-5-cis,13-trans-prostadiene]
ED50 [2]: 1.49 µg/kg | ED50 [3]: 0.781 µg/kg | ED50 [4]: 0.995 µg/kg

SMILES: C=CC(O)(CC=CC1C(O)CC(=O)C1CC=CCCCC(=O)CO)CCCC (stereo not drawn)
inhibition at 3200 µg/mL [1, 10]: 80% | inhibition at 3200 µg/mL [1, 11]: 80% | inhibition at 3200 µg/mL [1, 12]: 66% | ED50 [2, 13]: 0.402 µg/kg | ED50 [3, 13]: 0.254 µg/kg | ED50 [4, 13]: 2.66 µg/kg

SMILES: CCCCC1(C(O)C=CC2C(O)CC(=O)C2CC=CCCCC(=O)CO)CCC1 (stereo not drawn) [1,9-dioxo-11α,15-dihydroxy-1-hydroxymethyl-16,16-trimethylene-13-trans-5-cis-prostadiene]
inhibition at 3200 µg/mL [1, 10]: 80% | inhibition at 3200 µg/mL [1, 11]: 74% | inhibition at 3200 µg/mL [1, 12]: 68%

SMILES: CCCCCC(C)(O)CC=CC1C(O)CC(=O)C1CCCCCCC(=O)CO (stereo not drawn) [1,9-dioxo-11α,16-dihydroxy-16,20-dimethyl-1-hydroxymethyl-13-trans-prostene]
inhibition at 3200 µg/mL [1, 10]: 55% | inhibition at 3200 µg/mL [1, 11]: 70% | inhibition at 3200 µg/mL [1, 12]: 55%

SMILES: CCCCCC(O)CCC1CCC(=O)C1CCCCCCC(=O)CO [l-1,9-dioxo-15(S)-hydroxy-1-hydroxymethyl prostane]
inhibition at 3200 µg/mL [1, 10]: 70% | inhibition at 3200 µg/mL [1, 11]: 45% | inhibition at 3200 µg/mL [1, 12]: 30% | ED50 [2, 13]: 0.89 µg/kg | ED50 [3, 13]: 0.471 µg/kg

SMILES: CCCCCC(C)(O)/C=C/C1CCC(=O)C1CCCCCCC(=O)CO (stereo not drawn) [1,9-dioxo-15α-hydroxy-15-methyl-1-hydroxymethyl-13-trans-prostene]
% Inhibition of pilocarpine induced spasm ([1]; 5 min. after drug administration): 37% | % Inhibition of pilocarpine induced spasm ([1]; 30 min. after drug administration): 30% | % Inhibition of pilocarpine induced spasm ([1]; 60 min. after drug administration): 30% | ED50 [2]: 0.288 µg/kg | ED50 [3]: 0.373 µg/kg | ED50 [4]: 0.293 µg/kg

SMILES: C=CC(O)(CC=CC1C(O)CC(=O)C1CCCCCCC(=O)CO)CCCC (stereo not drawn) [1,9-dioxo-11α,16-dihydroxy-1-hydroxymethyl-16-vinyl-13-trans-prostene]
inhibition at 3200 µg/mL [1, 10]: 90% | inhibition at 3200 µg/mL [1, 11]: 80% | inhibition at 3200 µg/mL [1, 12]: 70% | ED50 [2, 13]: 0.147 µg/kg | ED50 [3, 13]: 0.25 µg/kg | ED50 [4, 13]: 1.7 µg/kg

SMILES: CCCCCC(O)/C=C/C1CCC(=O)C1CCCCCCC(=O)CO (stereo not drawn)
inhibition of platelet aggregation [5]: shows inhibition of platelet aggregation | inhibition of platelet aggregation [6]: shows inhibition of platelet aggregation

Hematocrit (Mean ± S.E.M.) [9]: 33.1 ± 2.1
SMILES: COc1ccc2c(c1)c(CC(=O)O)c(C)n2C(=O)c1ccc(Cl)cc1 [Indomethacin, reference compound]
Gastric Ulcer Score (Mean ± S.E.M.) [7]: 2.9 ± 0.2 | Intestinal Ulcer Score (Mean ± S.E.M.) [8]: 3.7 ± 0.2

SMILES: CCCCCC(C)(O)CC=CC1C(O)CC(=O)C1CC=CCCCC(=O)CO (stereo not drawn) [1,9-dioxo-11α,16-dihydroxy-16,20-dimethyl-1-hydroxymethyl-13-trans-5-cis-prostadiene]
ED50 [2, 13]: 47 µg/kg | ED50 [3, 13]: 8.8 µg/kg | ED50 [4, 13]: 19 µg/kg

SMILES: C=CC(O)(CC=CC1C(O)CC(=O)C1CC=CCCCC(=O)COC(C)=O)CCCC (stereo not drawn) [1,9-Dioxo-11α,16-dihydroxy-16-vinyl-1-acetoxymethyl-5-cis-13-trans-prostadiene]
inhibition at 3200 µg/mL [1, 10]: 92% | inhibition at 3200 µg/mL [1, 11]: 75% | inhibition at 3200 µg/mL [1, 12]: 55% | ED50 [3, 13]: 0.78 µg/kg | ED50 [4, 13]: 0.795 µg/kg
